Measured values published in PubChem BioAssay (NCI).
Values joined by “and” are separate entries in the source; they are usually repeats but may differ in a detail not shown here. Identical values can stand only once.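 Where inhibition never reached the appropriate level, the endpoint shown equals the highest concentration tested. Otherwise, values were interpolated linearly from a five-concentration, 48-hour dose response in 96-well plates. Abbreviation: GI50, concentration required for 50% inhibition of growth. TGI marks complete inhibition of growth.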

How the values were obtained:
Assay in all cases: NCI-60 cell line screen, 48 h
[1] = tested on: A549 NSCLC
[2] = tested on: OVCAR-8 ovarian
[3] = tested on: SK-MEL-28 melanoma
[4] = tested on: SN12C renal
[5] = tested on: LXFL 529 NSCLC
[6] = tested on: SK-MEL-2 melanoma
[7] = tested on: MOLT-4 leukemia
[8] = tested on: SW-620 colon
[9] = tested on: CAKI-1 renal
[10] = tested on: UACC-62 melanoma
[11] = tested on: NCI-H522 lung
[12] = tested on: KM12 colon
[13] = tested on: CCRF-CEM leukemia
[14] = tested on: RPMI-8226 leukemia
[15] = tested on: EKVX NSCLC
[16] = tested on: KM20L2 colon
[17] = tested on: SF-539 CNS
[18] = tested on: SK-MEL-5 melanoma
[19] = tested on: LOX IMVI melanoma
[20] = tested on: SK-OV-3 ovarian
[21] = tested on: SNB-78 CNS
[22] = tested on: HL-60(TB) leukemia
[23] = tested on: DLD-1 colon
[24] = tested on: HT29 colon
[25] = tested on: RXF 393 renal
[26] = tested on: SNB-19 CNS
[27] = tested on: DMS 273 small cell lung
[28] = tested on: HOP-92 NSCLC
[29] = tested on: OVCAR-3 ovarian
[30] = tested on: OVCAR-5 ovarian
[31] = tested on: SR leukemia
[32] = tested on: UACC-257 melanoma
[33] = tested on: M19-MEL melanoma
[34] = tested on: SNB-75 CNS
[35] = tested on: U251 CNS
[36] = tested on: HCT-15 colon
[37] = tested on: HCT-116 colon
[38] = tested on: A498 renal
[39] = tested on: ACHN renal
[40] = tested on: COLO 205 colon
[41] = tested on: SF-268 CNS
[42] = tested on: IGROV1 ovarian
[43] = tested on: K-562 leukemia
[44] = tested on: MALME-3M melanoma
[45] = tested on: UO-31 renal
[46] = tested on: NCI-H226 lung
[47] = tested on: TK-10 renal
[48] = tested on: HOP-18 NSCLC
[49] = tested on: NCI-H460 lung
[50] = tested on: DMS 114 small cell lung
[51] = tested on: OVCAR-4 ovarian
[52] = tested on: SF-295 CNS
[53] = tested on: NCI-H23 lung
[54] = tested on: 786-0 renal
[55] = tested on: HCC-2998 colon
[56] = tested on: HOP-62 NSCLC
[57] = tested on: M14 melanoma
[58] = tested on: XF 498 CNS
[59] = tested on: NCI/ADR-RES ovarian
[60] = tested on: MDA-MB-435
[61] = tested on: HS 578T breast
[62] = tested on: BT-549 breast
[63] = tested on: MDA-N
[64] = tested on: T-47D breast
[65] = tested on: MDA-MB-231 breast
[66] = tested on: MCF7 breast
[67] = tested on: DU-145 prostate
[68] = tested on: PC-3 prostate

Cc1cc(/C=C/c2cc[n+](C)c3ccccc23)c(O)c2ncccc12
TGI [1]: 19.1 µM | TGI [2]: 16.1 µM | TGI [3]: 13.6 µM | TGI [4]: 16 µM | TGI [5]: 16 µM | TGI [6]: 18.8 µM | TGI [7]: 7.47 µM | TGI [8]: 19.3 µM | TGI [9]: 27.6 µM | TGI [10]: 9.19 µM | TGI [11]: 11.6 µM | TGI [12]: 18.6 µM | TGI [13]: > 37.7 µM | TGI [14]: 6.41 µM | TGI [15]: 20 µM | TGI [16]: 20 µM | TGI [17]: 1.99 µM | TGI [18]: 4.98 µM | TGI [19]: 12.3 µM | TGI [20]: 13 µM | TGI [21]: 27.1 µM | TGI [22]: > 26.9 µM | TGI [23]: 22.5 µM | TGI [24]: 14.6 µM | TGI [25]: 9.83 µM | TGI [26]: 20.8 µM | TGI [27]: 10.4 µM | TGI [28]: 17 µM | TGI [29]: 3.97 µM | TGI [30]: 16 µM | TGI [31]: 4.3 µM | TGI [32]: 13.5 µM | TGI [33]: 8.52 µM | TGI [34]: 24 µM | TGI [35]: 13.5 µM | TGI [36]: 49.8 µM | TGI [37]: 7.34 µM | TGI [38]: 15.5 µM | TGI [39]: 16.4 µM | TGI [40]: 23.3 µM | TGI [41]: 11 µM | TGI [42]: 8.39 µM | TGI [43]: 13.7 µM | TGI [44]: 12.4 µM | TGI [45]: 21.3 µM | TGI [46]: 7.14 µM | TGI [47]: 17.5 µM | TGI [48]: 11.9 µM | TGI [49]: 16.7 µM | TGI [50]: 1.8 µM | TGI [51]: 32.4 µM | TGI [52]: 15.5 µM | TGI [53]: 4.86 µM | TGI [54]: 14.3 µM | TGI [55]: 14.5 µM | TGI [56]: 15 µM | TGI [57]: 4.51 µM

COC(=O)C(C(=O)OC)C1CCCC(=O)C1 (stereo not given)
TGI [1]: > 100 µM | TGI [2]: > 100 µM | TGI [58]: > 100 µM | TGI [3]: > 100 µM | TGI [4]: > 100 µM | TGI [5]: > 100 µM | TGI [6]: 0.503 µM | TGI [7]: > 100 µM | TGI [8]: > 100 µM | TGI [10]: > 100 µM | TGI [12]: > 100 µM | TGI [13]: > 100 µM | TGI [14]: > 100 µM | TGI [15]: > 100 µM | TGI [16]: > 100 µM | TGI [17]: > 100 µM | TGI [18]: > 100 µM | TGI [19]: > 100 µM | TGI [20]: > 100 µM | TGI [21]: > 100 µM | TGI [22]: > 100 µM | TGI [23]: > 100 µM | TGI [24]: > 100 µM | TGI [25]: > 100 µM | TGI [26]: > 100 µM | TGI [27]: > 100 µM | TGI [28]: > 100 µM | TGI [29]: > 100 µM | TGI [30]: > 100 µM | TGI [31]: > 100 µM | TGI [32]: > 100 µM | TGI [33]: > 100 µM | TGI [34]: > 100 µM | TGI [35]: > 100 µM | TGI [36]: > 100 µM | TGI [37]: > 100 µM | TGI [38]: > 100 µM | TGI [39]: > 100 µM | TGI [40]: > 100 µM | TGI [41]: > 100 µM | TGI [42]: > 100 µM | TGI [43]: > 100 µM | TGI [44]: > 100 µM | TGI [45]: > 100 µM | TGI [47]: > 100 µM | TGI [48]: > 100 µM | TGI [49]: > 100 µM | TGI [51]: > 100 µM | TGI [52]: > 100 µM | TGI [53]: > 100 µM | TGI [54]: > 100 µM | TGI [55]: > 100 µM | TGI [56]: > 100 µM | TGI [57]: > 100 µM

CC(C)=CCC/C(C)=C/CC/C(C)=C/CSc1ccccc1C(=O)O
GI50 [1]: 28.9 µM | TGI [1]: > 89.4 µM and 43.3 µM | GI50 [2]: 23.9 µM | TGI [2]: > 65.5 µM and 36.6 µM | GI50 [3]: 25.7 µM | TGI [3]: 62 µM and 54.3 µM | TGI [4]: 56.4 µM and 51.9 µM | GI50 [59]: 34.5 µM | TGI [59]: > 100 µM and 47.3 µM | GI50 [6]: 22.6 µM | TGI [6]: 45.4 µM and 29.4 µM | TGI [7]: 48.9 µM and 57.7 µM | GI50 [60]: 27.4 µM | TGI [60]: 73.6 µM and 55.5 µM | GI50 [61]: 33 µM | TGI [61]: > 100 µM and 44.5 µM | GI50 [8]: 20.1 µM | TGI [8]: 42.5 µM and > 100 µM | GI50 [9]: 28.1 µM | TGI [9]: 71.6 µM and 38.3 µM | TGI [10]: 35 µM and 34 µM | GI50 [11]: 21.6 µM | TGI [11]: 52 µM | TGI [12]: 35.8 µM and 33.5 µM | GI50 [13]: 32.3 µM | TGI [13]: > 100 µM and 74.2 µM | GI50 [14]: 25.2 µM | TGI [14]: 73.1 µM and 81.4 µM | GI50 [62]: 19.4 µM | TGI [62]: 40.4 µM and 32.2 µM | GI50 [15]: 29.8 µM | TGI [15]: > 84.9 µM and 45.1 µM | GI50 [17]: 19.9 µM | TGI [17]: 42.2 µM and 33.9 µM | GI50 [18]: 19.6 µM | TGI [18]: 41.5 µM and 29.5 µM | GI50 [19]: 26.6 µM | TGI [19]: > 68.5 µM and 35.4 µM | GI50 [20]: 37.6 µM | TGI [20]: > 100 µM and 62.8 µM | TGI [63]: 57.8 µM | GI50 [22]: 18.6 µM | TGI [22]: 41.4 µM and 67.1 µM | GI50 [24]: 33.5 µM | TGI [24]: > 78.5 µM and 38.1 µM | GI50 [25]: 22.2 µM | TGI [25]: 52.3 µM and 56 µM | GI50 [64]: 33.6 µM | TGI [64]: > 91.3 µM | GI50 [26]: 39.7 µM | TGI [26]: > 100 µM and 41.1 µM | GI50 [65]: 28.3 µM | TGI [65]: 61.7 µM and 55.8 µM | GI50 [28]: 19.3 µM | TGI [28]: 57.1 µM and 59.7 µM | TGI [29]: 33.8 µM and 30.9 µM | GI50 [30]: 23.1 µM | TGI [30]: 62.6 µM and 36.3 µM | GI50 [31]: 22.5 µM | TGI [31]: 59.1 µM | GI50 [32]: 30.5 µM | TGI [32]: > 100 µM | GI50 [34]: > 66.4 µM | TGI [34]: > 100 µM and 42.1 µM | GI50 [35]: 23.4 µM | TGI [35]: 59.9 µM and 44.5 µM | GI50 [36]: 28.6 µM | TGI [36]: > 100 µM and 32 µM | TGI [37]: 56.7 µM and 30.4 µM | GI50 [38]: 21.3 µM | TGI [38]: 54.6 µM and 56.7 µM | TGI [39]: > 100 µM | GI50 [66]: 33.5 µM | TGI [66]: 99.1 µM and 56 µM | GI50 [67]: 24.6 µM | TGI [67]: 55.1 µM and 33.5 µM | GI50 [40]: 36.8 µM | TGI [40]: > 100 µM and 48.4 µM | GI50 [41]: 18.5 µM | TGI [41]: 35.7 µM and 32.6 µM | GI50 [42]: 29.3 µM | TGI [42]: 70.5 µM and 35.5 µM | GI50 [43]: 26.2 µM | TGI [43]: > 100 µM | GI50 [44]: 25.6 µM | TGI [44]: 66.2 µM | GI50 [45]: 17.7 µM | TGI [45]: 37.1 µM | GI50 [68]: 27 µM | TGI [68]: > 59.3 µM and 34.1 µM | GI50 [46]: 19.9 µM | TGI [46]: 46.2 µM and 44.1 µM | GI50 [47]: 36.4 µM | TGI [47]: > 92.3 µM and 99.1 µM | GI50 [49]: 20.9 µM | TGI [49]: 42 µM and 33.1 µM | GI50 [51]: 31.5 µM | TGI [51]: > 100 µM | GI50 [52]: 25.2 µM | TGI [52]: 60.7 µM and 40 µM | GI50 [53]: 23.6 µM | TGI [53]: 61.4 µM and 36.3 µM | GI50 [54]: 23.1 µM | TGI [54]: 78.9 µM and 32.1 µM | GI50 [55]: 28.9 µM | TGI [55]: 92.4 µM and 33.6 µM | TGI [56]: 35.2 µM and 30.6 µM | GI50 [57]: 25.6 µM | TGI [57]: > 95 µM and 40.6 µM
